The results in this text go back to ChEMBL document CHEMBL4316623, “Phosphonodiamidate prodrugs of N-alkoxy analogs of a fosmidomycin surrogate as antimalarial and antitubercular agents” (Bioorg Med Chem Lett, 2019).

Calls of active or inactive are those of the source.

One series relates to Plasmodium falciparum. In words: Antimalarial activity against Chloroquine-resistant Plasmodium falciparum K1 measured after 72 hrs by malstat/NBT dye based assay. The following applies: K1, 72 h. It is filed as functional, organism-based.
The test system of series [1] is Mycobacterium tuberculosis. The series can be described thus: Antitubercular activity against Mycobacterium tuberculosis H37Rv up to 50 uM measured after 7 days by resazurin dye based colometric microtiter assay. It is filed as functional, organism-based.
The nature of series [2]: Cytotoxicity against human MRC5 cells assessed as reduction in cell viability measured after 24 hrs by resazurin dye based fluorimetric assay. For orientation: Resazurin is reduced to fluorescent resorufin, in cell work by metabolically active cells.
A short description of series [3]: Selectivity index, ratio of CC50 for human MRC5 cells to IC50 for Chloroquine-resistant Plasmodium falciparum K1. It is filed as toxicity. The following applies: read-out: Ratio CC50/IC50.
Series [4] can be described thus: Oral bioavailability in human. It is filed as ADME, organism-based. The following applies: in vivo.
Series [5] is described as follows: Half life in human at 500 mg, po. It is filed as ADME. The following applies: in vivo.

By IC50 is commonly meant the concentration that gives 50% inhibition. By CC50 is commonly meant the concentration at which the toxic effect on the cells reaches its halfway point. Consider `CCOC(=O)[C@H](CC(C)C)NP(=O)(CCCC(=O)N(C)OCc1ccc2ccccc2c1)N[C@@H](CC(C)C)C(=O)OCC`, for which, in the series with Plasmodium falciparum, inhibition was half-maximal at 6.22 µM (IC50). The result in series [1] was inactive. In addition, the CC50 at 24 h in series [2] worked out at 5.47 µM. The selectivity ratio in series [3] is 0.88.

`CCOC(=O)[C@H](CC(C)C)NP(=O)(CCCC(=O)N(C)OCc1ccc(-c2ccccc2)cc1)N[C@@H](CC(C)C)C(=O)OCC` had a half-inhibitory concentration (IC50) in the series with Plasmodium falciparum of 5.25 µM. Moreover, the outcome in series [1] was inactive. In series [2], the CC50 at 24 h came to 5.94 µM. For the same compound, the selectivity ratio in series [3] was 1.1.

Compound `CCOC(=O)[C@H](CC(C)C)NP(=O)(CCCC(=O)N(C)OCc1ccc(Cl)cc1)N[C@@H](CC(C)C)C(=O)OCC` came in with an IC50 in the series on Plasmodium falciparum of 7.12 µM. Besides, the outcome in series [1] was inactive. For the same compound, the CC50 at 24 h in series [2] turned out to be 18.4 µM. The selectivity ratio in series [3] stood at 2.6.

In turn, `CCOC(=O)[C@H](CC(C)C)NP(=O)(CCCC(=O)N(C)OCCCc1ccccc1)N[C@@H](CC(C)C)C(=O)OCC` displayed an IC50 with Plasmodium falciparum of 8.93 µM. Further, the outcome in series [1] was inactive. Moreover, the CC50 at 24 h in series [2] turned out to be 23.1 µM. In series [3], the selectivity ratio is 2.6.

With `CCOC(=O)[C@H](CC(C)C)NP(=O)(CCCC(=O)N(C)OCc1ccccc1)N[C@@H](CC(C)C)C(=O)OCC`, the midpoint of inhibition in the series on Plasmodium falciparum, the IC50, lay at 4.22 µM. For the same compound, the outcome in series [1] was inactive. For the same compound, the half-maximal cytotoxic concentration (CC50) at 24 h in series [2] was greater than 64 µM. In addition, in series [3], the selectivity ratio is greater than 15.

In the series with Plasmodium falciparum, `CCOC(=O)[C@H](CC(C)C)NP(=O)(CCCC(=O)N(C)OCc1ccc(C(C)C)cc1)N[C@@H](CC(C)C)C(=O)OCC` displayed an IC50 of 5.28 µM. For the same compound, the result in series [1] was inactive. Moreover, in series [2], the CC50 at 24 h was 7.22 µM. For the same compound, in series [3], the selectivity ratio stood at 1.4.

Regarding `CCOC(=O)[C@H](CC(C)C)NP(=O)(CCCC(=O)N(C)OCCCCc1ccccc1)N[C@@H](CC(C)C)C(=O)OCC`, in the series on Plasmodium falciparum, 6.72 µM corresponded to half-maximal inhibition (IC50). Also, the outcome in series [1] was inactive. For the same compound, the CC50 at 24 h in series [2] came out at 7.23 µM. In series [3], the selectivity ratio came out at 1.1.

What is called bioavailability is the share of a dose that reaches the circulation, judged against a reference dose that is usually intravenous. As a reminder, the half-life is the time needed for the level to fall by half in the phase considered. A low value points to rapid decline. In turn, `O=CN(O)CCCP(=O)([O-])O.[Na+]` [FOSMIDOMYCIN SODIUM] had a bioavailability in series [4] of 20 to 40%. Besides, the half-life in series [5] was 1.87 h.

`CCOC(=O)[C@H](CC(C)C)NP(=O)(CCCC(=O)N(C)O)N[C@@H](CC(C)C)C(=O)OCC` gave an IC50 in the series with Plasmodium falciparum of 4.83 µM. The outcome in series [1] was inactive. Besides, the CC50 at 24 h in series [2] is greater than 64 µM. Moreover, the selectivity ratio in series [3] is greater than 20.
